The values that follow come from patent publication US11117904B2, “Compositions and methods for the delivery of therapeutics” (ViiV Healthcare Company, priority 2016, dated 2021).

One series relates to HIV-1ADA. As to the kind of experiment: Antiretroviral activity in MDM challenged with HIV-1ADA (RT activity, HIV-1 p24 staining). The settings on record: MDM treated with 100 μM for 8 hours, challenged with HIV-1ADA at MOI 0.01; RT activity and p24. It is filed as cell-based. How it is done: MDM were treated with either 100 μM DTG, MDTG, P407-MDTG or FA-P407-MDTG for 8 hours. The cells were washed with PBS to remove excess of free drug and nanoparticles. The MDM were challenged with HIV-1ADA at a MOI of 0.01 infectious viral particles/cell for 18 hours on day 1, 5, 10 and 15. Progeny virion production was measured by reverse transcriptase (RT) activity in culture medium (Kalter et al. (1992) J. Clin. Microbiol., 30(4):993-995) (FIG. 2C). HIV-1 p24 protein antigen expression was assessed (Guo et al. (2014) J. Virol., 88(17):9504-9513). The MDM were washed with PBS and fixed with 4% paraformaldehyde for 15 minutes at room temperature. The cells were blocked using 10% BSA containing 1% Triton X-100 in PBS for 30 minutes at room temperature. Following blocking, cells were incubated with HIV-1 p24 mouse monoclonal antibodies (1:50; Dako, Carpinteria, Calif., USA) for overnight at 4° C., followed by 1 hour incubation at room temperature. […]
MDM were treated with either 100 μM CAB long acting parenteral (CAB-LAP), P407-CAB, P407-MCAB or FA-P407-MCAB for 8 hours. […] Progeny virion production was measured by reverse transcription (RT) activity in culture medium (Kalter et al. (1992) J. Clin. Microbiol., 30(4):993-995). HIV-1 p24 protein antigen expression was assessed (Guo et al. (2014) J. Virol., 88(17):9504-9513) (FIG. 4C). […]

Series [1] can be described thus: Nanoparticle characterization by dynamic light scattering. Format: physicochemical. The settings on record: upon derivatization of native drug into prodrug. On the procedure: Nanoformulations were characterized for particle size, polydispersity index (PDI) and zeta potential by dynamic light scattering (FIG. 1). This was done using a Malvern Zetasizer, Nano Series Nano-ZS (Malvern Instruments Inc., Westborough, Mass.). Nanoparticle morphology was determined by scanning electron microscopy (SEM). Ultra performance liquid chromatography tandem mass-spectrometry (UPLC MS/MS) was used for drug quantitation. […] Further, the improved hydrophobicity of MDTG facilitated production of stable formulations with high drug loading capacity. Nanoformulations were characterized for particle size, polydispersity index (PDI) and zeta potential by dynamic light scattering (DLS) (Table 1). This was done using a Malvern Zetasizer, Nano Series Nano-ZS (Malvern Instruments Inc, Westborough, Mass.). Nanoparticle morphology was determined by scanning electron microscopy (SEM). UPLC MS/MS was used for drug quantitation. […] The improved hydrophobicity of MCAB facilitated production of stable formulations with high drug loading capacity.

Series [2] concerns human monocyte derived macrophages (MDM). As to the kind of experiment: Uptake and retention of drug in human monocyte derived macrophages (HPLC). Format: cell-based. How it is done:
Human monocytes were cultured in macrophage colony stimulating factor containing cell culture medium for 7-10 days in order to differentiate into macrophages (Balkundi et al. (2011) Intl. J. Nanomed., 6:3393-3404; Nowacek et al. (2009) Nanomed., 4(8):903-917). The macrophages were incubated with a range of formulations and native drugs. At each time point, adherent MDM were washed three times with 1 mL of PBS, scraped into 1 mL of fresh PBS and pelleted by centrifugation at 950×g for 8 minutes. The cell pellet was reconstituted in 200 μl of high performance liquid chromatography (HPLC)-grade methanol and probe sonicated followed by centrifugation at 20,000×g for 20 minutes. The supernatant was analyzed for drug content using HPLC (FIG. 2A and FIG. 2B). […] Human monocytes were cultured in macrophage colony stimulating factor containing cell culture medium for 7-10 days in order to differentiate into macrophages (Balkundi et al. (2011) Intl. J. Nanomed., 6:3393-3404; Nowacek et al. (2009) Nanomed., 4(8):903-917). The macrophages were incubated with a range of formulations and native drugs. At each time point, adherent monocyte-derived macrophage (MDM) were washed three times with 1 mL of PBS, scraped into 1 mL of fresh PBS and pelleted by centrifugation at 950×g for 8 minutes. […] The supernatant was analyzed for drug content using HPLC (FIGS. 4A and 4B). […]

Take `CCCCCCCCCCCCCC(=O)Oc1c2n(cc(C(=O)NCc3ccc(F)cc3F)c1=O)C[C@@H]1OCC[C@@H](C)N1C2=O` [MDTG]: in the series with HIV-1ADA, the antiretroviral efficacy result is reported as “significant enhancements”. For the same molecule, in series [1], the hydrophobicity entry is listed as “greatly improved”. Also, the MDM retention result in series [2] (cellular retention in MDM) is “significant enhancements”.
On to `CCCCCCCCCCCCCC(=O)Oc1c2n(cc(C(=O)NCc3ccc(F)cc3F)c1=O)CC1OCC(C)N1C2=O` (centres unmarked) [MCAB], for which the hydrophobicity result in series [1] is on record as “greatly improved”. Besides, the “intracellular accumulation of the drug” value in series [2] (MDM, compared to CAB-LAP) was “significantly improved”.
